The record followed here is ChEMBL document CHEMBL1134998, “A novel synthesis of 7-aryl-8-fluoro-pyrrolo[1,2-a]pyrimid-4-ones as potent, stable GnRH receptor antagonists” (Bioorg Med Chem Lett, 2002).

The target of the test is T1, Gonadotropin-releasing hormone receptor (Homo sapiens, UniProt P30968).
T1 sequence (P30968 whole entry): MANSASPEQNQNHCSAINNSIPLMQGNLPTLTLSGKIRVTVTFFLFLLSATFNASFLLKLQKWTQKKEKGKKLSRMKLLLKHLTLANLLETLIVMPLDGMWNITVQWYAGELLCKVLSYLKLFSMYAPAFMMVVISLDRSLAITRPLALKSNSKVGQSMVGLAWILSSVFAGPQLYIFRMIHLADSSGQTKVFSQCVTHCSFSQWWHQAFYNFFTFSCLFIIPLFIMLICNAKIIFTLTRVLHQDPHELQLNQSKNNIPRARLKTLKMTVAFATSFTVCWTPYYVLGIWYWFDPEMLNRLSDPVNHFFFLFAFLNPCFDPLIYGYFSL
In words: Binding affinity towards human Gonadotropin-releasing hormone receptor.
In the case of `CCOC(=O)c1cn(Cc2ccccc2F)c2c(F)c(-c3cccc(OC)c3)c(CN(C)Cc3ccccc3)n2c1=O`, the affinity, expressed as Ki, was 2600 nM.

In turn, `CCOC(=O)c1cn(Cc2ccccc2F)c2c(F)c(-c3ccc(OCC(C)C)cc3)c(CN(C)Cc3ccco3)n2c1=O` had a Ki of 92 nM.

As to `CCOC(=O)c1cn(Cc2ccccc2F)c2c(F)c(-c3ccc(OCC(C)C)cc3)c(CN(C)Cc3ccccc3)n2c1=O`, the Ki amounted to 42 nM.

`CCOC(=O)c1cn(Cc2ccccc2F)c2c(F)c(-c3cccc(OC)c3)c(CN(C)CCc3ccccn3)n2c1=O`: the Ki stood at 200 nM.

In turn, `CCOC(=O)c1cn(Cc2ccccc2F)c2c(F)c(-c3cccc(OC)c3)c(CN(C)Cc3ccco3)n2c1=O` came in with a Ki of 24000 nM.

Take `CCOC(=O)c1cn(Cc2ccccc2F)c2c(F)c(-c3ccc(OCC(C)C)cc3)c(CN(C)CCc3ccccn3)n2c1=O`: the affinity, expressed as Ki, was 9 nM.
